“Also recorded” adds a separate entry of the source. Square brackets hold non-standard residues; d marks the D form. Peptide text beside a SMILES is read from it.
Assays:
small α-syn PFF seeds = experiment: AFM analysis of small α-syn PFF seeds; type: biochemical; details: 400 and 1600 nM SVD-1a, 3 days at 37 °C, PBS pH 7.4
Protocol: Fig. 4 SVD-1a disassembles small α-syn PFF seeds into α-syn monomers. Small α-syn PFF seeds were prepared as described previously. […] A and B Time-dependent DLS measurements with 200 nM small α-syn PFF seeds in the absence (A) and presence (B) of 500 nM SVD-1a. 1 ml sample was continuously measured in a sealed quartz cuvette at 37 °C under quiescent conditions every 60 s for 72 h in a SpectroSize 300 instrument (XtalConcepts, GE). Data are shown as a radius plot where the signal amplitude of each particle size is represented by the data point diameter. C One-phase exponential decay fit of “200 nM PFF + 500 nM SVD-1a” shown in (B). […] PFF and monomer samples that were incubated without SVD-1a served as controls. α-Syn was detected with the antibody Syn211. […] In the upper part of the blot, above the marker range, PFFs were detected, using a longer exposure time due to a weaker signal (see Supplementary Fig. 11 for the whole blot image with different exposure times). F Size-based fractionation by centrifugal concentration followed by ELISA quantification. […] After incubation, the samples were fractioned using a 100 kDa MWCO centrifugal concentrator (Merck, Microcon DNA Fast Flow 100 MWCO). α-Syn content of flow through (red) and retentate (blue) was quantified using an α-syn specific ELISA (BioLegend, Human α-Synuclein (Colorimetric), 448607). […]

α-syn monomer = experiment: SDS–PAGE of fractionated de novo aggregation samples; type: biochemical; details: 10 µM α-syn, 5, 10, 20 µM SVD-1a, 7 days, silver staining
Protocol: For small PFF pre incubation with or without SVD-1a (Fig. 4) samples were pre-incubated at 37 °C and 600 rpm for 72 h in PBS pH 7.4 with 0.05% sodium azide using protein low binding reaction tubes in a thermos shaker (Eppendorf GmbH, GE). For de novo aggregation analysis, each replicate was pre-incubated in PBS pH 7.4 with 0.05% sodium azide in a 96-well non-binding half-area plate (Corning, USA) in a FLUOStar platereader (BMG labtech, GE) with 300 rpm continuous orbital shaking in between reads, adding one borosilicate bead per well (d = 3 mm, Hilgenberg, GE, n = 7). 10 µM α-syn monomer was incubated with or without 5, 10 or 20 µM SVD-1a for 7 days. […] The α-syn concentration of the samples was then quantified using an α-syn-specific kit (Human α-Synuclein (Colorimetric), 448607, BioLegend, USA). […]
Supplementary Fig. 20: SDS-PAGE analysis of de novo aggregation samples at incubation endpoint in presence or absence of SVD-1a. 10 µM α-syn monomer was incubated with or without 5, 10 or 20 µM SVD-1a for 7d in a 96-well non-binding half-area plate (Corning, USA) in a FLUOStar platereader (BMG labtech, GE) with 300 rpm continuous orbital shaking in between reads adding one borosilicate bead per well (d = 3 mm, Hilgenberg, GE, n = 7). […] Retentate and flow through samples were analyzed using SDS-PAGE with silver staining. […]

## CC[C@@H](C)[C@@H](NC(=O)[C@@H](Cc1c[nH]cn1)NC(=O)[C@@H](CCC(=O)O)NC(=O)[C@@H](CCC(N)=O)NC(=O)[C@@H](Cc1c[nH]c2ccccc12)NC(=O)[C@@H](Cc1ccc(O)cc1)NC(=O)[C@H](NC(=O)[C@@H](CCC(=O)O)NC(=O)[C@@H](Cc1c[nH]cn1)NC(=O)[C@H](NC(=O)[C@H]1CCCN1C(=O)[C@@H](CC(C)C)NC(=O)[C@H](N)CCCNC(=N)N)[C@H](C)O)[C@H](C)O)C(=O)N[C@H](Cc1c[nH]c2ccccc12)C(=O)N[C@H](Cc1c[nH]cn1)C(=O)N[C@H](C)C(=O)N[C@H](CCCNC(=N)N)C(=O)N[C@H](CCCNC(=N)N)C(=O)N[C@H](CCCNC(=N)N)C(=O)N[C@H](CCCNC(=N)N)C(=O)N[C@H](CCCNC(=N)N)C(N)=O [SVD-1a] (H-[dR][dL][dP][dT][dH][dE][dT][dY][dW][dQ][dE][dH][dI][dW][dH][dA][dR][dR][dR][dR][dR]-NH2)
Small α-syn PFF seeds
  small α-syn PFF particle number: decrease in small α-syn PFF particle number
α-syn monomer
  aggregate band in retentate / shift to flow-through: a progressive shift of α-syn from the retentate to the flow-through is observed; also recorded: the aggregate band intensity was substantially diminished

— PMC12454639, “Direct disassembly of α-syn preformed fibrils into α-syn monomers by an all-D-peptide” (NPJ Parkinson's Disease, 2025)
